# In US11759433B2, “Compositions and methods for regulating the endocannabinoid system” (Sytheon Ltd, priority 2019, dated 2023):
# pIC50: −log10 of the molar value. Read-outs that look alike come from different tables or passages of the source.
# Experiments:
# [1] = molecular target: T1, Fatty Acid Amide Hydrolase (FAAH) (Homo sapiens, UniProt O00519); assay: FAAH inhibitor screening assay (Cayman kit); type: biochemical; settings: for IC50: read-out: FAAH IC50 (converted)
# T1 construct: purchased Cayman 10005196
# T1 sequence (O00519 1-579): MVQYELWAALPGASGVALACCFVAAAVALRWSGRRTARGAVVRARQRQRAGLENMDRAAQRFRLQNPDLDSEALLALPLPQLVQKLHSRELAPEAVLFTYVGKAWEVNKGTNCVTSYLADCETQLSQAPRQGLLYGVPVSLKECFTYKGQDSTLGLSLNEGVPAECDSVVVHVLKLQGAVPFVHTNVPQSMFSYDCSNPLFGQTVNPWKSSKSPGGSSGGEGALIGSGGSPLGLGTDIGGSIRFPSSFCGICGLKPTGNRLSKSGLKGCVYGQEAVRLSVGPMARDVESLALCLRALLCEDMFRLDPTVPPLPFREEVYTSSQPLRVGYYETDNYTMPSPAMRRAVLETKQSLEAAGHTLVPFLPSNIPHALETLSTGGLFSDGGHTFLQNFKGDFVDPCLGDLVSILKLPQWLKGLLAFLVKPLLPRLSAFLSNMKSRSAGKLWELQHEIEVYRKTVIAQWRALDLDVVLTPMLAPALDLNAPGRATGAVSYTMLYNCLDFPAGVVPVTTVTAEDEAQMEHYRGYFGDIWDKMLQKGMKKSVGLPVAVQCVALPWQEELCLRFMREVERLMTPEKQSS
# Experimental: A 0.01 gram of sample of each of the indicated Test Samples identified in Table 3 was dissolved in 1 mL DMSO to make stock solution. […] The analysis was done following FAAH inhibitor screening assay kit (Cayman cat #10005196) protocol.
# [2] = molecular target: T2, Fatty Acid Binding Protein 5 (FABP5) (Homo sapiens, UniProt Q01469); assay: Fatty Acid Binding Protein 5 inhibitory activity (FABP-5 ELISA kit)
# T2 construct: purchased Raybiotech 268-10276-1
# T2 sequence (Q01469 whole entry): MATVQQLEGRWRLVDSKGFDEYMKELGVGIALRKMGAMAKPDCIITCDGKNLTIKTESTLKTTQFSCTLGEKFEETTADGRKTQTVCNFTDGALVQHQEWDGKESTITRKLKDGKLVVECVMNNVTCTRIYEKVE
# Experimental: 0.1 gram of sample of each of the indicated Test Samples identified in Table 3 was dissolved in 1 mL DMSO and diluted with Diluent C from the FABP-5 ELISA Kit (Raybiotech #ELH-FABP5) to a make stock solution of 800 μg/ml. […] 50 μl of sample and 50 μl of 200 ng/ml of FABP-5 (Raybiotech #268-10276-1) was added per well for the analysis. The analysis was done following protocol of the aforementioned kit.
# [3] = test system: IL-8; assay: IL-8 output in RHE-conditioned medium (sandwich ELISA); type: cell-based, Human; settings: for IL-8 (% Control): 2 mg/cm^2 on RHE; for Effect on level of IL-8, in words: tissue culture conditioned medium
# Experimental: (§1) A series of tests were conducted to assess the impact of the compositions according to the present teaching on the stress biomarkers cortisol and interleukin-8 8). The compounds and compositions to be evaluated were stored at room temperature prior to use and, for use, were solubilized in caprylic acid/caprylic triglycerides. The tests were conducted using reconstituted human epithelium-conditioned medium. Reconstituted Human Epidermis tissues were obtained from Zen-Bio (Research Triangle, NC; order #51500) and were stored o/n at 4° C. The following day the tissues were transferred to 6 well plates and allowed to equilibrate for 4 h in the medium provided by the manufacturer (ZenSkin RHE Assay Medium, lot #031620). Thereafter the medium was change with fresh medium and the Test Materials, as identified in Table 4, applied to the tissue samples in an amount of 2 mg/cm^2 with a positive displacement pipette and spread evenly on top of the tissues. The solvent was used as the negative control.
# IL-8—Similarly, interleukin-8 (IL-8) output in the cell culture conditioned medium was measured by sandwich ELISA using antibody pair from Invitrogen (ThermoFisher, kit cat. #CHC1303) and antibody pair from BioLegend (cat. #501101 and #501201), respectively. All colorimetric measurements were performed using Molecular Devices microplate reader MAX190 and SoftMax3.1.2PRO software.
# (§2) In both studies the statistical significance was assessed with two-tail Student test. Deviations of ≥15% as compared to water control with p values below 0.05 were considered statistically significant.
# [4] = test system: Cortisol; assay: Cortisol output in RHE-conditioned medium; type: cell-based, Human; settings: for Cortisol (% Control): 2 mg/cm^2 on RHE; for Cortisol (% Control) / Cortisol std MTT (% Control): 48 h; for Cortisol std MTT (% Control): standardised to MTT tissue viability
# Experimental: as §1
# Cortisol—After 48 h of incubation, the cortisol output in the cell culture conditioned medium was measured with the Cortisol Parameter Assay Kit from RnD (Minneapolis, MN cat. #KGE008B), while tissue viability was assessed by the MTT technique, using the manufacturer's protocol and reagents.
# as §2
# [5] = molecular target: T3, Monoacyl Glycerol Lipase (MAGL) (Homo sapiens, UniProt Q99685); assay: Monoacyl Glycerol Lipase (MAGL) inhibitory activity; type: biochemical; settings: for IC50: read-out: MAGL IC50 (converted)
# T3 construct: purchased Cayman 10007812
# T3 sequence (Q99685 1-303): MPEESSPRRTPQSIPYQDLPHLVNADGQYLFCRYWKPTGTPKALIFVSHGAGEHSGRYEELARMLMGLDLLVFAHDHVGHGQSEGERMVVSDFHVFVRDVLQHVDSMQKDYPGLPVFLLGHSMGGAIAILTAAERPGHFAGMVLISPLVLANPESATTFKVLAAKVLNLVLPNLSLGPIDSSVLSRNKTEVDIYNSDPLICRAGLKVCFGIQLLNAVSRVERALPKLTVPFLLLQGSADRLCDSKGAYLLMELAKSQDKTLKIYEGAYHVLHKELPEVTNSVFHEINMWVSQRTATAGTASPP
# Experimental: A 0.1 gram of sample of each of the indicated Test Samples identified in Table 3 was dissolved in 1 mL DMSO to make stock solution. […] Final concentration in well: 10 μL of sample, 5.6 mU MAGL (Cayman cat. #10007812), and 23.6 μM 2Arachidonoyl Glycerol (Cayman cat. #62160). This study was done by following the protocol described by J L Blankman et al. (Blankmann et., A comprehensive profile of brain enzymes that hydrolyze the endocannabinoid 2-Arachidonyl glycerol, Chem & Biol, 14(12); 1347-1356, 2007).
Compound,IC50 [1],pIC50 [2],IL-8 (% Control) ([3]; 0.1%),IL-8 (% Control) ([3]; 0.25%),IL-8 (% Control) ([3]; 0.5%),"Effect on level of IL-8, in words [3]",Cortisol (% Control) ([4]; 0.1%),Cortisol std MTT (% Control) ([4]; 0.1%),Cortisol (% Control) ([4]; 0.25%),Cortisol std MTT (% Control) ([4]; 0.25%),Cortisol (% Control) ([4]; 0.5%),Cortisol std MTT (% Control) ([4]; 0.5%),IC50 [5],pIC50 ([1]; FAAH IC50),IL-8 (% Control) ([3]; 1%),Cortisol (% Control) ([4]; 1%),Cortisol std MTT (% Control) ([4]; 1%),"Effect on level of cortisol, in words ([4]; higher levels)","Effect on level of cortisol, in words ([4]; low levels)",pIC50 [5]
"CCCCC/C=C\C/C=C\CCCCCCCC(=O)OCC [Ethyl Linoleate 98, Ethyl linoleate]",3.6 µM,–,–,–,–,–,–,–,–,–,–,–,–,–,–,–,–,–,–,–
C=C[C@@](C)(/C=C/c1ccc(O)cc1)CCC=C(C)C [Bakuchiol],6.71 µM,3.35,92 % Control,92 % Control,86 % Control,marginal effect in reducing,51 % Control,56 % Control,64 % Control,87 % Control,54 % Control,79 % Control,183 µM,–,–,–,–,–,–,–
"CCCCC/C=C\C/C=C\CCCCCCCC(=O)OCC [Ethyl Linoleate (Synovea ® EL), Ethyl linoleate]",9.81 µM,2.83,–,–,–,–,–,–,–,–,–,–,7710 µM,–,–,–,–,–,–,–
"C=C(C)[C@@H]1CCC(C)=C[C@H]1c1c(O)cc(CCCCC)cc1O [Cannabidiol 99, Cannabidiol]",–,–,103 % Control,–,107 % Control,no effect or marginally increased,72 % Control,82 % Control,–,–,84 % Control,95 % Control,–,4.00,108 % Control,134 % Control,174 % Control,increased the cortisol level,modest decrease in cortisol,1.88
